Results reported in patent publication US20260191793A1, “HBV SPECIFIC EXOSOMES AND USES THEREOF” (priority 2022, published 2026).
Entries after “also recorded” stand apart in the source; their conditions may differ.

Experiments:
HBV DNA = assay: Mismatch sensitive T7 endonuclease 1 (T7E1) assay in HepDE19 cells; format: cell-based, Hepatitis B virus (HBV); conditions: HepDE19 cells transfected for 3 days, T7E1 digestion of PCR products
Description: DNA cleavage by CRISPR/Cas9 results in double-strand breaks (DSBs), which are repaired primarily by the non-homologous end-joining (NHEJ) pathway, resulting in indel mutations and transcriptionally active episomal variants. Thus, detecting DNA cleavage and indel mutations following CRISPR/Cas9-mediated DNA damage and repair is important for confirming its gene-editing effects. To validate the capability of the synthetic gRNA/Cas9 RNPs to introduce indel mutation and cleavage in HBV DNA in HepDE19 cells, a mismatch sensitive T7 endonuclease (T7E1) assay-was performed, following transfection of HepDE19 cells with gRNA5, gRNA9, gRNA5+gRNA9, or gRNAc RNPs. This assay allows for the detection of specific cleavage sites or indel mutations in the target gene (HBV DNA) in the treated cells. The indel mutagenesis was determined based on the DNA fragments detected after the gRNA/Cas9-mediated cleavage of the HBV DNA following T7E1 digestion of the specific PCR products.
The HBV DNA sequences surrounding gRNA-binding sites were amplified by PCR. […]
DNA cleavage by CRISPR/Cas9 results in double-strand breaks (DSBs), which are primarily repaired by the non-homologous end joining (NHEJ) repair pathway, resulting in gene mutations. […] The mutagenesis was determined based on the DNA fragments detected after the gRNA/Cas9-mediated cleavage of the HBV DNA following T7E1 digestion.

HBV cccDNA = assay: HBV-infected HepG2-NTCP cells directly transfected with gRNA/Cas9 RNPs, HBV cccDNA qPCR; format: cell-based, Hepatitis B virus (HBV); conditions: direct transfection for 3 days
Description: To test whether the synthetic gRNA/Cas9 can reduce newly formed HBV cccDNA in HepG2-NTCP cells, the cells with HBV particle-containing supernatants from HepDE19 cells (supernatants harvested 6 days after culture in Tet-free media) were infected. The HepG2-NTCP cells were infected with HBV particles for 6 days and then transfected with gRNA5, gRNA9, gRNA5 plus gRNA9 (in combination), or gRNAc RNPs for 3 days, followed by measuring HBV cccDNA. In another experiment, the infected HepG2-NTCP cells were incubated for 3 days with exosomes packaged with gRNA5, gRNA9, gRNA5 plus gRNA9 (in combination), or gRNAc RNPs, followed by measuring HBV cccDNA.
In another experiment, 1×10^6 HepG2-NTCP cells were infected using supernatants containing HBV particles from HepDE19 cells that were maintained for 6 days. The HBV-infected HepG2-NTCP cells were transfected with gRNA5, gRNA9, gRNA5 plus gRNA9, or gRNAc RNPs as described above. The cells were maintained for 3 days in a complete culture medium and then harvested for HBV cccDNA detection by qPCR.
Total and protein-free HBV DNAs were extracted from whole cell lysate using the Hirt DNA method according to a previously published protocol. […] HBV total DNA and cccDNA were analyzed by real-time PCR using a TaqMan PCR assay. […] The DNA levels were determined by the […] method and values were normalized to the control group.

| Sequence | cleaved products / DSBs in HBV DNA after T7E1 treatment (HBV DNA) | HBV cccDNA levels (HBV cccDNA) |
| --- | --- | --- |
| GGTCTCCATGCGACGTGCAGNGG [gRNA9] | cleaved products were observed; also recorded: DSBs were introduced | significantly reduced |
| GTTATCGCTGGATGTGTCTGNGG (guide GUUAUCGCUGGAUGUGUCUGNGG; complexed with Cas9 protein, chemistry not fully specified) [gRNA5, tested as synthetic gRNA/Cas9 RNP] | cleaved products were observed; also recorded: DSBs were introduced | significantly reduced |
